In patent US5736522A, “Esculetin derivatives and method for manufacture thereof, use thereof, and pharmaceutical composition” (Kureha Chemical Industry Co., Ltd., priority 1993, dated 1998):

Assays:
[1] = system: GAG in the matrix; experiment: Suppression of reduction in GAG in the matrix caused by stimulation of interleukin-1 or the like
[2] = system: Wistar male rats; experiment: Acute toxicity of esculetin derivatives, rats; details: rat, in vivo
Description: (§1) The toxicity of the esculetin derivatives of the present invention was examined. Typical examples of the present derivatives were administered orally at a dose of 2000 mg/kg (body weight) to male mice and male rats which were then observed for seven days. No deaths and no remarkable toxicity were observed. The esculetin derivatives of the present invention are extremely safe compounds (see Example 27).
(§2) The acute toxicity of the present substance was examined using Crj: CD-1 (ICR) male mice (6 weeks old) and Wistar male rats (6 weeks old). 6-(β-2-acetoamide-2-deoxy-D-glucopyranosyloxy)-7-hydroxycoumarin [Ib-2] […] No deaths were observed. […] In the experiments, two animals were used for each group.

[3] = system: Crj: CD-1 (ICR) male mice; experiment: Acute toxicity of esculetin derivatives, mice; details: mouse, in vivo
Description: as §1, §2

Structure (SMILES)	suppression of the reduction in GAG in the matrix [1]	deaths [2]	deaths [3]
O=c1ccc2cc(O)c(O)cc2o1 [esculetin]	strongly suppress the reduction in the GAG in the matrix		
CC(=O)N[C@H]1[C@H](Oc2cc3ccc(=O)oc3cc2O)O[C@H](CO)[C@@H](O)[C@@H]1O [Ib-2]		No deaths	No deaths
Cc1cc(=O)oc2cc(O)c(O)cc12 [4-methylesculetin]	strongly suppress the reduction in the GAG in the matrix		
